Assay results from patent US20240269304A1, “BCL-XL INHIBITOR ANTIBODY-DRUG CONJUGATES AND METHODS OF USE THEREOF” (Novartis AG, priority 2020, published 2024).
Where two headings read alike, the source gives them in different places.

Experiments:
[1] = tested on: H1650 cells; experiment: CellTiterGlo (CTG) cell viability, 3D, 120 h, H1650 (Example 8); type: cell-based, human
[2] = ADC stability study: % aggregates by SEC after incubation at 37° C. for 168 h; type: physicochemical
Description: Size Exclusion Chromatography: Size exclusion chromatography (SEC) was performed for quality control of each ADCs by measuring monomer percentage of the conjugate. The analysis was performed on analytical column Superdex 200 Increase 5/150 GL (GE Healthcare, 28990945) in isocratic conditions 100% PBS pH7.4 (Sigma Life Science, P3813, 10PAK), flow 0.45 mI/min for 12 minutes. The % aggregate fraction of the conjugate sample was quantified based on the peak area absorbance at 280 nm. Its calculation was based on the ratio between the high molecular weight eluent at 280 nm divided by the sum of peak area absorbance at the same wavelength of the high molecular weight and monomeric eluents multiplied by 100.
Characterization of the exemplary ADCs is summarized in Table 13 (coupling, LC-MS method, OAR, aggregation status, ADO stability and yield). The average OAR values were determined using the above LC-MS methods and the percentage of aggregates was measured by size exclusion chromatography (SEC) during the quality control of the ADO and after the stability study (incubation at 37° C. for 168 h).

[3] = tested on: DND-41 cells; experiment: CellTiterGlo (CTG) cell viability, 72 h, DND-41 (Example 8); type: cell-based
Description: DND-41 cells were cultivated in RPMI supplemented with 10% heat inactivated fetal bovine serum, penicillin (100 IU/ml), streptomycin (100 μg/ml) and L-glutamine (2 mM). Cell lines were cultured at 37° C. in a humidified atmosphere containing 5% CO2. […] Effects of payloads or ADCs on cell viability were assessed after 3 days of incubation at 37° C./5% CO2 by quantification of cellular ATP levels using CellTiterGlo at 75 μL reagent/well. All the conditions were tested in triplicates. Luminescence was quantified on a multipurpose plate reader. IC50s were calculated using standard four-parametric curve fitting.

[4] = tested on: ALL-SIL cells; experiment: CellTiterGlo (CTG) cell viability, 72 h, ALL-SIL (Example 8); type: cell-based
Description: ALL-SIL cells were cultivated in RPMI supplemented with 20% heat inactivated fetal bovine serum, penicillin (100 IU/ml), streptomycin (100 μg/ml) and L-glutamine (2 mM). Cell lines were cultured at 37° C. in a humidified atmosphere containing 5% CO2. Cells were seeded in 96 well clear bottom plates (96 well clear-bottom, white, Corning reference 3903) and exposed to the payloads or ADCs for 72 h (serially diluted; 9 concentrations each, triplicates). Effects of payloads or ADCs on cell viability were assessed after 3 days of incubation at 37° C./5% CO2 by quantification of cellular ATP levels using CellTiterGlo at 75 μL reagent/well. All the conditions were tested in triplicates. Luminescence was quantified on a multipurpose plate reader. IC50s were calculated using standard four-parametric curve fitting. […] Each experiment was performed at least twice, with results being reproducible.

[5] = H1650 3D, experiment n1, read-out: H1650 3D CTG IC50 n1
[6] = H1650 3D, experiment n2, read-out: H1650 3D CTG IC50 n2
[7] = H1650 3D, mean of n1 and n2, read-out: H1650 3D CTG IC50 Mean of n1 and n2

Row | Compound | IC50 [1, 5] [nM] | IC50 [1, 6] [nM] | IC50 [1, 7] [nM] | Stab w1 +37° C. % Agg (by SEC) [2] [%] | further results
1 | CC[N+](C)(CC#Cc1ccc(OCCCc2sc(N3CCCc4c3nnc(Nc3nc5ccccc5s3)c4C)nc2C(=O)O)c(F)c1)Cc1ccc(NC(=O)[C@H](CCCNC(N)=O)NC(=O)[C@@H](NC(=O)CCOCCN2C(=O)CC(C)C2=O)C(C)C)cc1 (some centres unmarked) [Ab C - L9A-P13] | 0.9 | 0.7 | 0.8 | 0.2 | 
2 | CC[N+](CC)(CC#Cc1ccc(OCCCc2sc(N3CCCc4c3nnc(Nc3nc5ccccc5s3)c4C)nc2C(=O)[O-])c(F)c1)Cc1ccc(NC(=O)[C@H](CCCNC(N)=O)NC(=O)[C@@H](NC(=O)CCOCCN2C(=O)CC(C)C2=O)C(C)C)cc1 (some centres unmarked) [Ab C - L9A-P14] | 1.3 | 0.4 | 0.85 | 7 | 
3 | Cc1c(Nc2nc3ccccc3s2)nnc2c1CCCN2c1nc(C(=O)[O-])c(CCCOc2ccc(C#CC(C)N3CC[N+](C)(Cc4ccc(NC(=O)[C@H](CCCNC(N)=O)NC(=O)[C@@H](NC(=O)CCOCCN5C(=O)CC(C)C5=O)C(C)C)cc4)CC3)cc2F)s1 (some centres unmarked) [Ab C - L9A-P8] | 0.14 | 0.3 | 0.22 | 7 | 
4 | Cc1c(Nc2nc3ccccc3s2)nnc2c1CCCN2c1nc(C(=O)O)c(CCCOc2ccc(C#CCN(C)C(=O)OCc3ccc(NC(=O)[C@H](CCCNC(N)=O)NC(=O)[C@@H](NC(=O)CCOCCN4C(=O)CC(C)C4=O)C(C)C)cc3S(=O)(=O)O)cc2F)s1 (some centres unmarked) [Ab C - L27C-P3] | 1.4 | 2.6 | 2 | 17 | 
5 | Cc1c(Nc2nc3ccccc3s2)nnc2c1CCCN2c1nc(C(=O)O)c(CCCOc2ccc(C#CCN3CCN(C(=O)OCc4ccc(NC(=O)[C@H](CCCNC(N)=O)NC(=O)[C@@H](NC(=O)CCOCCN5C(=O)CC(C)C5=O)C(C)C)cc4)CC3)cc2F)s1 (some centres unmarked) [Ab C - L9C-P17] | 2.85 | 2.51 | 2.68 | 22 | 
6 | Cc1c(NC2Nc3ccccc3S2)nnc2c1CCCN2c1nc(C(=O)[O-])c(CCCOc2ccc(C#CC[N+]3(Cc4ccc(NC(=O)[C@H](CCCNC(N)=O)NC(=O)[C@@H](NC(=O)CCCCCN5C(=O)CC(C)C5=O)C(C)C)cc4)CCCCC3)cc2F)s1 (some centres unmarked) [Ab C - L9A-P18] | 1.2 | 1.25 | 1.23 | 3 | 
7 | Cc1cc(N(C)c2ccc(-c3cnn(C[C@]45C[C@]6(C)C[C@](C)(C4)C[C@@](OCCN(CCCO)C(=O)OCc4ccc(NC(=O)[C@H](CCCNC(N)=O)CC(=O)[C@@H](NC(=O)CCOCCN7C(=O)CC(C)C7=O)C(C)C)cc4)(C6)C5)c3C)c(C(=O)O)n2)nnc1Nc1nc2ccccc2s1 (mixture of isomers) [Ab C - L9C-P26] | 0.12 | 0.11 | 0.12 | 3 | 
8 | Cc1cc(N(C)c2nc(C(=O)O)c(CCCOc3ccc(C#CCN(C)C(=O)OCc4ccc(NC(=O)[C@H](C)NC(=O)[C@@H](NC(=O)CCOCCN5C(=O)CC(C)C5=O)C(C)C)cc4CC[C@@H]4O[C@H](C(=O)O)[C@@H](O)[C@H](O)[C@H]4O)cc3F)s2)nnc1Nc1nc2ccccc2s1 (some centres unmarked) [Ab C -L106C-P7] | 1.8 | 1.5 | 1.65 | 29 | 
9 | Cc1c(Nc2nc3ccccc3s2)nnc2c1CC(OCCN(C)C(=O)OCc1ccc(NC(=O)[C@H](CCCNC(N)=O)NC(=O)[C@@H](NC(=O)CCOCCN3C(=O)CC(C)C3=O)C(C)C)cc1)CN2c1nc(C(=O)O)c(CCCOc2ccc(C#CCN(C)C)cc2F)s1 (some centres unmarked) [Ab C - L9C-P16] | 3.9 | 4.2 | 4.05 | 2.4 | 
10 | Cc1cc(N(C)c2nc(C(=O)[O-])c(CCCOc3ccc(C#CC(C)[N+](C)(C)Cc4ccc(NC(=O)[C@H](CCCNC(N)=O)NC(=O)[C@@H](NC(=O)CCOCCN5C(=O)CC(C)C5=O)C(C)C)cc4)cc3F)s2)nnc1Nc1nc2ccccc2s1 (some centres unmarked) [Ab C - L9A-P11] | 0.5 | 0.5 | 0.5 | 2.4 | 
11 | C=C(C)CCCC[C@](C)(CC(=C)[C@@](C)(CC(=C)CCCCCC1C(=C)CC(C)C1=C)C(C)C)C(=C)Cc1ccc(CC(C)(C)CCC[C@]23C[C@]4(C)C[C@](C)(C2)C[C@@](CC2C=CC(c5ccc(C6CCCc7c6ccc(CC6=Cc8ccccc8C6)c7C)cc5C(=C)C)=C2C)(C4)C3)cc1 (some centres unmarked) [Ab C - L9A-P27] | 0.3 | 0.22 | 0.26 | 16 | 
12 | C=C(C)CCCC[C@](C)(CC(=C)[C@@](C)(CC(=C)CCCCCC1C(=C)CC(C)C1=C)C(C)C)C(=C)Cc1ccc(CCC(=C)C2CCC(CCC[C@]34C[C@]5(C)C[C@](C)(C3)C[C@@](CC3C=CC(c6ccc(C7CCCc8c7ccc(CC7=Cc9ccccc9C7)c8C)cc6C(=C)C)=C3C)(C5)C4)CC2)cc1 (some centres unmarked) [Ab C - L9C-P31] | 0.07 | 0.1 | 0.09 | 6 | 
13 | Cc1c(Nc2nc3ccccc3s2)nnc2c1CCCN2c1nc(C(=O)O)c(CCCOc2ccc(C#CCN(CCN(C)C)C(=O)OCc3ccc(NC(=O)[C@H](CCCNC(N)=O)NC(=O)[C@@H](NC(=O)CCOCCN4C(=O)CC(C)C4=O)C(C)C)cc3)cc2F)s1 (some centres unmarked) [Ab C - L9C-P12] | 0.6 | 0.9 | 0.75 | 4 | 
14 | CC(=O)CCCC[C@](C)(CC(=O)[C@@](C)(CC(=O)CCCCCC1C(=O)CC(C)C1=O)C(C)C)C(=O)Cc1ccc(CC(C)(C)CC#Cc2ccc(CCCCC3=C(C(C)=O)C=C(C4CCCc5c4ccc(CC4=Cc6ccccc6C4)c5C)C3)cc2)cc1 (some centres unmarked) [Ab C - L9A-P28] | 0.21 | 0.2 | 0.21 | 15 | 
15 | Cc1c(Nc2nc3ccccc3s2)nnc2c1CCCN2c1nc(C(=O)O)c(CCCOc2ccc(C#CCN3CCNCC3)cc2F)s1 [P17, 2-[3-(1,3-Benzothiazol-2-ylamino)-4-methyl-6,7-dihydro-5H-pyrido[2,3-c]pyridazin-8-yl]-5-[3-[2-fluoro-4-(3-piperazin-1-ylprop-1-ynyl)phenoxy]propyl]thiazole-4-carboxylic acid] |  |  |  |  | IC50 ([1]; Homo sapiens, NCI-H1650, H1650 3D, experiment n1, read-out: H1650 3D CTG IC50 n1): 3.15 nM; IC50 ([1]; Homo sapiens, NCI-H1650, H1650 3D, experiment n2, read-out: H1650 3D CTG IC50 n2): 5.3 nM; IC50 ([1]; Homo sapiens, NCI-H1650, H1650 3D, mean of n1 and n2, read-out: H1650 3D CTG IC50 Mean of n1 and n2): 4.23 nM; IC50 ([3]; DND41, experiment n1, read-out: DND41 CTG 72 h IC50 nM n1): 0.4 nM; IC50 ([3]; DND41, experiment n2, read-out: DND41 CTG 72 h IC50 nM n2): 0.7 nM; IC50 ([3]; DND41, mean of n1 and n2, read-out: DND41 CTG 72 h IC50 nM Mean of n1 and n2): 0.55 nM; IC50 ([4]; experiment n1, read-out: ALLSIL CTG 72 h IC50 nM n1): 0.13 nM; IC50 ([4]; experiment n2, read-out: ALLSIL CTG 72 h IC50 nM n2): 0.26 nM; IC50 ([4]; mean of n1 and n2, read-out: ALLSIL CTG 72 h IC50 nM Mean of n1 and n2): 0.2 nM
